Where two headings read alike, the source gives them in different places.

In one experiment the test system is NCI-H460 cells. The experiment can be described thus: Cancer cell growth inhibition experiment (MTT assay). Format: cell-based. The note with it: Homo sapiens, lung cancer cell line, compounds 48 hours, cell viability by MTT assay. The protocol:
NCl-H460 cells, lung cancer cell lines, were cultured in 5% CO2, 37° C. incubator using a flask for 75 cm^2 tissue culture. 96-well plates were used for the evaluation. These were prepared by differently applying at concentrations in the range of 6,000 to 12,000 cells/well according to the growth rate of the cell lines. The medium containing 5% FBS were dispensed in 200 μL/well and used. The medium were cultured for 24 hours. After confirming the cell status and dispensing form of a 96-well plate under a microscope, they were used for subsequent experiments. The compounds were evaluated at concentrations of 100, 30, 10, 3, 1, 0.3, 0.03, 0.01 μM. After removing the existing medium, the compounds with various concentrations were treated in an amount of 200 μL/well. The compounds-treated plates were further cultured for 48 hours, and the cell viabilities were measured by MTT assay to calculate IC50 values.
% Inhibition and IC50 values of the respective compounds were calculated and analyzed using Sigma Plot 8.0. In Table 2, the results are divided into A, B and C according to the range of IC50. The case where the derived IC50 is 3 μM or less is represented by “A”, the case where the IC50 is 3 to 10 μM is represented by “B”, and the case where the IC50 is 10 μM or higher is represented by “C”.

The target in the next experiment is T1, PRS enzyme (Homo sapiens, UniProt P07814).
T1 construct: the portion corresponding to PRS in cDNA of EPRS was subcloned; made in house
T1 sequence (P07814 1007-1512 limits assumed): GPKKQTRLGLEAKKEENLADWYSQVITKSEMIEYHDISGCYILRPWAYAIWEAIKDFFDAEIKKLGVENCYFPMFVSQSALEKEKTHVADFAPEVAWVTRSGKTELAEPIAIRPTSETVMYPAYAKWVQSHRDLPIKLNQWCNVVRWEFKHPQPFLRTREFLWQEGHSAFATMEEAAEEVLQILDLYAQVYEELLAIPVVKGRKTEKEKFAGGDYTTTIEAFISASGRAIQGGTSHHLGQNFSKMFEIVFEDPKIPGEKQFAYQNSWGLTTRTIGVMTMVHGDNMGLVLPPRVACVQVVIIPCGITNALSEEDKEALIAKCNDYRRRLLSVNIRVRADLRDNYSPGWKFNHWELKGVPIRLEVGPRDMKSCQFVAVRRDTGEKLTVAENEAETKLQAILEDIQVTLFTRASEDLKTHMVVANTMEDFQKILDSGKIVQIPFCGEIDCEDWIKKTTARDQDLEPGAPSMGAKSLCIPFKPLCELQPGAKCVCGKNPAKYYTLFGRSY
Description: PRS enzyme activity inhibition experiment. In kind it is biochemical. The protocol: Specifically, the portion corresponding to PRS in cDNA of EPRS was subcloned, and the obtained high-purity PRS protein was purified and used in the experiment. The compounds (1 μM) prepared in Examples were added into the reaction buffer (20 mM KPO4 (pH 7.4), 6 mM MgAc, 5 mM ATP, […] tRNA, 0.5 mM DTT, […][^3H]proline (1 mCi/mL)) and allowed to react at 37° C. for 5 to 10 minutes. The reaction was terminated with 3M paper that was in advance dried by addition of 5% TCA. The radioactivity was measured using a liquid scintillation counter.
% Inhibition and IC50 values of the respective compounds were calculated and analyzed using Microsoft Excel or Sigma Plot 8.0. In Table 1, the results are divided into A, B and C according to the range of IC50.

[1] abbreviates: purified PRS protein subcloned from EPRS cDNA, [3H]proline, 37° C., 5 to 10 minutes, liquid scintillation counter, read-out: PRS IC50.

As for `O=C(C[C@H]1NCCC[C@@H]1O)Cn1cnc2ccc(-c3cccc(C(F)(F)F)c3)nc21` [Example 47, 1-((2R,3S)-3-hydroxypiperidin-2-yl)-3-(5-(3-(trifluoromethyl)phenyl)-3H-imidazo[4,5-b]pyridin-3-yl)propan-2-one], the 50% inhibitory concentration (IC50) with NCI-H460 cells is no more than 3000 nM; on PRS enzyme (setting [1]) it was less than 100 nM.

Consider `O=C(C[C@H]1NCCC[C@@H]1O)Cn1cnc2cccc(-c3ccccc3)c21` [Example 48, 1-((2R,3S)-3-hydroxypiperidin-2-yl)-3-(7-phenyl-1H-benzo[d]imidazol-1-yl)propan-2-one], for which the IC50 with NCI-H460 cells was no less than 10000 nM; on PRS enzyme (setting [1]), 100 to 500 nM.

Take `O=C(C[C@H]1NCCC[C@@H]1O)Cn1cnc2cccc(-c3cccc(F)c3)c21` [Example 49, 1-(7-(3-fluorophenyl)-1H-benzo[d]imidazol-1-yl)-3-((2R,3S)-3-hydroxypiperidin-2-yl)propan-2-one]: the 50% inhibitory concentration (IC50) is no more than 3000 nM in the experiment with NCI-H460 cells and less than 100 nM on PRS enzyme (setting [1]).

Regarding `O=C(C[C@H]1NCCC[C@@H]1O)Cn1cnc2cccc(-c3cccc(Cl)c3)c21` [Example 50, 1-(7-(3-chlorophenyl)-1H-benzo[d]imidazol-1-yl)-3-((2R,3S)-3-hydroxypiperidin-2-yl)propan-2-one], the IC50 was no less than 10000 nM in the experiment on NCI-H460 cells and 100 to 500 nM on PRS enzyme (setting [1]).

With `O=C(C[C@H]1NCCC[C@@H]1O)Cn1cnc2cccc(-c3ccc(Cl)cc3)c21` [Example 51, 1-(7-(4-chlorophenyl)-1H-benzo[d]imidazol-1-yl)-3-((2R,3S)-3-hydroxypiperidin-2-yl)propan-2-one], the IC50 was no less than 10000 nM with NCI-H460 cells and 100 to 500 nM against PRS enzyme.

Consider `O=C(C[C@H]1NCCC[C@@H]1O)Cn1cnc2cccc(-c3ccc(C(F)(F)F)cc3)c21` [Example 54, 1-((2R,3S)-3-hydroxypiperidin-2-yl)-3-(7-(4-(trifluoromethyl)phenyl)-1H-benzo[d]imidazol-1-yl)propan-2-one], for which the IC50 is no less than 10000 nM with NCI-H460 cells and 100 to 500 nM on PRS enzyme (setting [1]).

Turning to `O=C(C[C@H]1NCCC[C@@H]1O)Cn1c(CO)nc2cc(-c3cccc(F)c3)ccc21` [Example 56, 1-(5-(3-fluorophenyl)-2-(hydroxymethyl)-1H-benzo[d]imidazol-1-yl)-3-((2R,3S)-3-hydroxypiperidin-2-yl)propan-2-one], the values for the IC50 in the experiment on NCI-H460 cells and on PRS enzyme (setting [1]) were no less than 10000 nM and greater than 500 nM, respectively.

For the molecule `O=C(C[C@H]1NCCC[C@@H]1O)Cn1c(CO)nc2ccc(-c3ccccc3)cc21` [Example 57, 1-(2-(hydroxymethyl)-6-phenyl-1H-benzo[d]imidazol-1-yl)-3-((2R,3S)-3-hydroxypiperidin-2-yl)propan-2-one], the IC50 in the experiment on NCI-H460 cells was 3000 to 10000 nM; on PRS enzyme (setting [1]) it was less than 100 nM.

For the molecule `O=C(C[C@H]1NCCC[C@@H]1O)Cn1c(CO)nc2ccc(-c3ccccc3F)cc21` [Example 58, 1-(6-(2-fluorophenyl)-2-(hydroxymethyl)-1H-benzo[d]imidazol-1-yl)-3-((2R,3S)-3-hydroxypiperidin-2-yl)propan-2-one], the 50% inhibitory concentration (IC50) in the experiment with NCI-H460 cells is 3000 to 10000 nM; on PRS enzyme (setting [1]), less than 100 nM.

On to `O=C(C[C@H]1NCCC[C@@H]1O)Cn1c(CO)nc2ccc(-c3cccc(F)c3)cc21` [Example 59, 1-(6-(3-fluorophenyl)-2-(hydroxymethyl)-1H-benzo[d]imidazol-1-yl)-3-((2R,3S)-3-hydroxypiperidin-2-yl)propan-2-one], for which the IC50 in the experiment with NCI-H460 cells is no more than 3000 nM; on PRS enzyme (setting [1]) it was less than 100 nM.

As to `O=C(C[C@H]1NCCC[C@@H]1O)Cn1c(CO)nc2ccc(-c3ccc(F)cc3)cc21` [Example 60, 1-(6-(4-fluorophenyl)-2-(hydroxymethyl)-1H-benzo[d]imidazol-1-yl)-3-((2R,3S)-3-hydroxypiperidin-2-yl)propan-2-one], the IC50 is no less than 10000 nM in the experiment on NCI-H460 cells and less than 100 nM on PRS enzyme (setting [1]).

`O=C(C[C@H]1NCCC[C@@H]1O)Cn1c(CO)nc2ccc(-c3cccc(C(F)(F)F)c3)cc21` [Example 61, 1-(2-(hydroxymethyl)-6-(3-(trifluoromethyl)phenyl)-1H-benzo[d]imidazol-1-yl)-3-((2R,3S)-3-hydroxypiperidin-2-yl)propan-2-one]: the IC50 is no more than 3000 nM with NCI-H460 cells and 100 to 500 nM at PRS enzyme (setting [1]).

Turning to `OC(C[C@H]1NCCC[C@@H]1O)Cn1cnc2ccc(-c3cccc(Cl)c3)nc21` (stereo partly drawn) [Example 62, (2R,3S)-2-(3-(5-(3-chlorophenyl)-3H-imidazo[4,5-b]pyridin-3-yl)-2-hydroxypropyl)piperidin-3-ol], the half-inhibitory concentration (IC50) in the experiment on NCI-H460 cells is no less than 10000 nM; at PRS enzyme (setting [1]), less than 100 nM.

On to `OC(C[C@H]1NCCC[C@@H]1O)Cn1cnc2ccc(-c3cccc(Cl)c3)cc21` (stereo partly drawn) [Example 63, (2R,3S)-2-(3-(6-(3-chlorophenyl)-1H-benzo[d]imidazol-1-yl)-2-hydroxypropyl)piperidin-3-ol], for which the IC50 was no less than 10000 nM in the experiment on NCI-H460 cells and 100 to 500 nM on PRS enzyme (setting [1]).

(Values after patent US10011586B2, “Heterocyclic compound, method for preparing the same, and pharmaceutical composition comprising the same” (Daewoong Pharmaceutical Co., Ltd., priority 2015, dated 2018).)
